39 compounds from patent US20220395500A1, “SMALL MOLECULE ACTIVATORS OF INTERFERON REGULATORY FACTOR 3 AND METHODS OF USE THEREOF” (Neuralexo, Inc., priority 2020, published 2022) can be followed below.

The CC50 is the concentration that lowers cell viability or growth by half. For orientation: EC50 means the concentration giving half of the maximal effect.

Where two headings read alike, the source gives them in different places.

Holding throughout (assay type): cell-based, human
Data set [1] deals with IRF-Lucia luciferase reporter (ISRE) in THP1-Dual cells. Put plainly: THP1-Dual IRF-Lucia luciferase reporter assay (ISRE activation). As to conditions: for EC50: read-out: THP1 IRF EC50; for IRF3 and NF-κB reporter activity: human THP1 and mouse J774 macrophage-like cells. In outline: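 THP1-Dual cells were differentiated with 5 ng/mL PMA for 48 h at 37° C, washed, then treated with compounds at 10 μM final for 24 h; LPS at 313 ng/mL served as control. ISRE-driven Lucia luciferase in supernatant was read by luminescence.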

Data set [2] can be described thus: THP1-Dual cytotoxicity (Cell Titer Glo, ATP). The following applies: human, THP1-Dual cells, read-out: Thp1 cytotox CC50. In outline:
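Human THP1-Dual cells were treated across an 8-point dose-response range. Cytotoxicity was measured in-plate by CellTiter-Glo luminescence, which quantifies ATP as a marker of metabolically active cells, and CC50 was taken as the 50% cytotoxic concentration.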
(In ATP-based viability assays light output follows the ATP content of the culture.)

Data set [3] relates to NF-κB-SEAP reporter in THP1-Dual cells. Briefly: THP1-Dual NF-κB-SEAP reporter counterscreen. The following applies: for EC50: read-out: THP1 NFkB EC50. A digest of the protocol: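 THP1-Dual cells differentiated 48 h with 5 ng/mL PMA, washed, then treated 24 h with compounds at 10 μM final; LPS 313 ng/mL as control. Supernatant read for Lucia luciferase (ISRE) by QUANTI-Luc luminescence and for NF-κB-SEAP by QUANTI-Blue absorbance at 630 nm after 1 h at 37° C.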
A general note: A counterscreen serves to expose hits that act by an unwanted route or on another target.

Setting [4] is: Homo sapiens, THP1-Dual, Human Reporter Cell Line, 8-point dose response.
Setting [5] is: Homo sapiens, THP1-Dual, Human Reporter Cell Line THP1.

On to `Cc1ccc2c(=O)c3cccc(CC(=O)O)c3oc2c1C` [DMXAA, 5,6-dimethylxanthenone-4-acetic acid], for which, in data set [1] (THP1-Dual), the “ISRE activation in THP1-Dual cell line” value was “not effective”.
`O=C(Nc1ccc(N2CCN(C(=O)c3cccs3)CC2)cc1)c1ccc(Cl)c2ccccc12` [NA13]: the CC50 in data set [2] (Human Reporter Cell Line) is more than 25 µM. Further, the figures for the EC50 in data set [1] (setting [4]) and in data set [3] (setting [4]) were approximately 1.55 µM and 1.22 µM, respectively.
As to `CCOc1cccc(COc2ccc(C(=O)Nc3ccc(N4CCN(C(=O)c5cccs5)CC4)cc3)cc2)c1` [NA42, 4-((3-ethoxybenzyl)oxy)-N-(4-(4-(thiophene-2-carbonyl)piperazin-1-yl)phenyl)benzamide], the CC50 in data set [2] (Human Reporter Cell Line) is 121 µM. Further, the EC50 in data set [1] (setting [4]) is 3.6 µM; in data set [3] (setting [4]) it was 3.04 µM.
Take `O=C(Nc1ccc(N2CCN(C(=O)c3ccsc3)CC2)cc1)c1ccc(OCc2ccccc2)nc1` [NA-1]: the CC50 in data set [2] (Human Reporter Cell Line) is 10.5 µM. In addition, the results for the EC50 in data set [1] (setting [4]) and in data set [3] (setting [4]) were 1.94 µM and 2.07 µM, respectively.
As to `O=C(Nc1ccc(N2CCN(C(=O)c3cccs3)CC2)cc1)c1ccc(Br)cc1` [NA-14], the CC50 in data set [2] (Human Reporter Cell Line) was more than 25 µM. The EC50 in data set [1] (setting [4]) is approximately 2.62 µM; in data set [3] (setting [4]), approximately 2.42 µM.
The like results for `Cc1c(Br)ccc(C(=O)Nc2ccc(N3CCN(C(=O)c4cccs4)CC3)cc2)c1C` [NA-16] were, in that order, more than 25 µM, 6.46 µM and approximately 5.23 µM.
For the compound `O=C(Nc1ccc(N2CCN(C(=O)c3cccs3)CC2)cc1)c1sc2cc(Cl)ccc2c1Cl` [NA-20], the CC50 in data set [2] (Human Reporter Cell Line) amounted to 11.8 µM. For the same compound, the EC50 in data set [1] (setting [4]) worked out at 1.94 µM; in data set [3] (setting [4]), 2.76 µM.
The like results for `O=C(Nc1ccc(N2CCN(C(=O)c3cccs3)CC2)cc1)c1cccc2c(Br)cccc12` [NA-21, 5-bromo-N-{4-[4-(2-thienylcarbonyl)-1-piperazinyl]phenyl}-1-naphthamide] were, in that order, 39.4 µM, 0.73 µM and 1.08 µM.
The matching figures for `O=C(Nc1ccc(N2CCN(C(=O)c3cccs3)CC2)cc1)c1ccc(OCc2ccc(F)c(F)c2F)cc1` [NA-23]: 12.7 µM, 1.71 µM and approximately 2.31 µM.
The like results for `COc1cccc(COc2ccc(C(=O)Nc3ccc(N4CCN(C(=O)c5cccs5)CC4)cc3)cc2)c1` [NA-24, 4-((3-methoxybenzyl)oxy)-N-(4-(4-(thiophene-2-carbonyl)piperazin-1-yl)phenyl)benzamide] were, in that order, 16.8 µM, 3.14 µM and 4.16 µM.
As for `Cc1ccc(COc2ccc(C(=O)Nc3ccc(N4CCN(C(=O)c5cccs5)CC4)cc3)cc2)cc1` [NA-25], the CC50 in data set [2] (Human Reporter Cell Line) was found to be 35.5 µM. In addition, the EC50 in data set [1] (setting [4]) is 3.29 µM; in data set [3] (setting [4]), 5 µM.
The matching figures for `CCOc1ccc(C(=O)Nc2ccc(N3CCN(C(=O)c4cccs4)CC3)cc2)cc1Br` [NA-30]: 18.8 µM, 2.68 µM and 1.05 µM.
The like results for `O=C(Nc1ccc(N2CCN(C(=O)c3cccs3)CC2)cc1)c1ccc(-c2cc3ccccc3oc2=O)cc1` [NA-32] were, in that order, 36.6 µM, 1.43 µM and 3.13 µM.
As for `O=C(Nc1ccc(N2CCN(C(=O)c3cccs3)CC2)cc1)c1ccc(OCc2cccc(Cl)c2)cc1` [NA-33], the CC50 in data set [2] (Human Reporter Cell Line) amounted to 9.58 µM. Further, the EC50 in data set [1] (setting [4]) is 1.84 µM; in data set [3] (setting [4]) it was 1.62 µM.
The like results for `O=C(Nc1ccc(N2CCN(C(=O)c3cccs3)CC2)cc1)c1ccc(-c2ccncc2)cc1` [NA-38] were, in that order, more than 25 µM, approximately 11.2 µM and 3.46 µM.
`O=C(Nc1ccc(N2CCN(C(=O)c3cccs3)CC2)cc1)c1ccc(-c2ccccc2)cn1` [NA-39]: the CC50 in data set [2] (Human Reporter Cell Line) was more than 25 µM. In addition, the results for the EC50 in data set [1] (setting [4]) and in data set [3] (setting [4]) were 7.02 µM and 7.91 µM, respectively.
The like results for `O=C(Nc1ccc(N2CCN(C(=O)c3cccs3)CC2)cc1)c1ccc(-c2ccccc2)nc1` [NA-41] were, in that order, more than 25 µM, 10.7 µM and 12.5 µM.
As for `CCOc1cccc(COc2ccc(C(=O)Nc3ccc(N4CCN(C(=O)c5cccs5)CC4)cc3)cc2)c1` [NA-42, 4-((3-ethoxybenzyl)oxy)-N-(4-(4-(thiophene-2-carbonyl)piperazin-1-yl)phenyl)benzamide], the “IRF3 and NF-κB reporter activity” value in data set [1] (8-point dose response) is “high IRF3 activity and low off-target NF-κB activation”.
Turning to `COc1ccc(C(=O)Nc2ccc(OCc3ccccc3)cc2)cc1[N+](=O)[O-]` [NA-44], the CC50 in data set [2] (Human Reporter Cell Line) amounted to 50.3 µM. Besides, the EC50 in data set [1] (setting [4]) came to 4.45 µM; in data set [3] (setting [4]) it was 0.92 µM.
The like results for `O=C(Nc1ccc(N2CCN(C(=O)c3cccs3)CC2)cc1)c1ccc(OCc2ccccc2)nc1` [NA-59] were, in that order, 16 µM, approximately 2.53 µM and approximately 2.57 µM.
Consider `Cc1ccc(NC(=O)c2cc(NC(=O)c3ccccc3)ccc2N2CCOCC2)cc1Cl` [NB-1], for which the CC50 in data set [2] (Human Reporter Cell Line THP1) is 32.8 µM. Moreover, the EC50 in data set [1] (setting [5]) is 2.53 µM; in data set [3] (setting [5]) it was 2.54 µM.
Take `Cc1ccc(NC(=O)c2cc(NC(=O)Cc3ccccc3)ccc2N2CCOCC2)cc1Cl` [NB-3]: in data set [2] (Human Reporter Cell Line THP1), the CC50 is 52.5 µM. In addition, the EC50 in data set [1] (setting [5]) was approximately 1.57 µM. The activation at 25 µM in data set [3] (THP1-Dual, 24 h, Human Reporter Cell Line THP1, @25 uM, read-out: THP1 NFkB % activation at peak) worked out at 38%.
For the compound `Cc1ccc(NC(=O)c2cc(NC(=O)c3cccs3)ccc2N2CCOCC2)cc1Cl` [NB-8], the CC50 in data set [2] (Human Reporter Cell Line THP1) is more than 25 µM. The EC50 in data set [1] (setting [5]) is 4.7 µM; in data set [3] (setting [5]), 13.9 µM.
The matching figures for `Cc1ccc(NC(=O)c2cc(NC(=O)c3cccs3)ccc2N2CCOCC2)cc1` [NB-17]: more than 25 µM, 6.07 µM and approximately 3.14 µM.
The matching figures for `O=C(Nc1ccc(N2CCOCC2)c(C(=O)Nc2ccc(OCc3ccccc3)cc2)c1)c1cccs1` [NB-18]: more than 25 µM, 2.23 µM and 3.66 µM.
The like results for `Cc1ccc(NC(=O)c2cc(NC(=O)c3cccs3)ccc2N2CCOCC2)cc1Br` [NB-23] were, in that order, 30.5 µM, 3.27 µM and 4.59 µM.
Take `Cc1cc(NC(=O)c2sc3cc(Cl)ccc3c2Cl)ccc1NC(=O)c1ccco1` [NC-2]: the CC50 in data set [2] (Human Reporter Cell Line) was more than 25 µM. Besides, the figures for the EC50 in data set [1] (setting [4]) and in data set [3] (setting [4]) were 7.98 µM and 15.4 µM, respectively.
With `COc1ccc(C(=O)Nc2cc(-c3nc4cc(C)c(C)cc4o3)ccc2C)cc1[N+](=O)[O-]` [ND13, N-(5-(5,6-dimethylbenzo[d]oxazol-2-yl)-2-methylphenyl)-4-methoxy-3-nitrobenzamide], the CC50 in data set [2] (Human Reporter Cell Line THP1) was 8.76 µM. Besides, the EC50 in data set [1] (setting [5]) turned out to be 0.975 µM; in data set [3] (setting [5]), 0.556 µM.
As to `COc1ccc(C(=O)Nc2cc(-c3nc4ccccc4s3)ccc2C)cc1[N+](=O)[O-]` [ND52, N-[5-(1,3-benzothiazol-2-yl)-2-methylphenyl]-4-methoxy-3-nitrobenzamide], in data set [2] (Human Reporter Cell Line THP1), the CC50 was determined as 27.6 µM. Also, the EC50 is 3.89 µM in data set [1] (setting [5]) and approximately 5.51 µM in data set [3] (setting [5]).
`COc1ccc(C(=O)Nc2nc(-c3cc4ccccc4oc3=O)cs2)cc1` [ND-1]: the CC50 in data set [2] (Human Reporter Cell Line THP1) is more than 25 µM. Moreover, the EC50 is approximately 12.4 µM in data set [1] (setting [5]) and approximately 12.7 µM in data set [3] (setting [5]).
The like results for `COc1ccc(C(=O)Nc2cc(-c3nc4cc(C(C)C)ccc4o3)ccc2C)cc1[N+](=O)[O-]` [ND-2] were, in that order, 27.6 µM, 1.12 µM and 4.47 µM.
The like results for `CC(C)CC(=O)Nc1ccc2oc(-c3cccc(I)c3)nc2c1` [ND-5] were, in that order, more than 25 µM, 14.7 µM and 12.3 µM.
The like results for `O=C(Cc1ccc(Cl)cc1)Nc1cccc(-c2nnc(-c3ccco3)o2)c1` [ND-7] were, in that order, more than 25 µM, 8.42 µM and 6 µM.
Consider `COc1ccc(C(=O)Nc2cc(-c3nc4cc(C)c(C)cc4o3)ccc2C)cc1[N+](=O)[O-]` [ND-13, N-(5-(5,6-dimethylbenzo[d]oxazol-2-yl)-2-methylphenyl)-4-methoxy-3-nitrobenzamide], for which the “IRF3 and NF-κB reporter activity” value in data set [1] (8-point dose response) is “high IRF3 activity and low off-target NF-κB activation”.
Consider `COc1ccc(-c2nc3cc(C(C)C)ccc3o2)cc1NC(=O)c1ccc(C)c([N+](=O)[O-])c1` [ND-16], for which the CC50 in data set [2] (Human Reporter Cell Line THP1) was 32.7 µM. Also, the EC50 in data set [1] (setting [5]) is 3.12 µM; in data set [3] (setting [5]), 3.25 µM.
As to `COc1ccc(C(=O)Nc2cc(-c3nc4ccccc4s3)ccc2C)cc1[N+](=O)[O-]` [ND-38], the EC50 is 4.29 µM in data set [1] (Human Reporter Cell Line THP1) and approximately 3.12 µM in data set [3] (Human Reporter Cell Line THP1).
Take `COc1ccc(C(=O)Nc2cccc(-c3nc4ncccc4o3)c2)cc1Br` [ND-47]: in data set [2] (Human Reporter Cell Line THP1), the CC50 was more than 25 µM. Besides, the EC50 was 10.6 µM in data set [1] (setting [5]) and 2.1 µM in data set [3] (setting [5]).
The matching figures for `Cc1ccc(-c2nc3ccccc3s2)cc1NC(=O)c1cccc(Cl)c1` [ND-80]: 33.9 µM, 6.16 µM and approximately 6.55 µM.
The like results for `ClCCCOc1ccc(-c2nc3cc(OCCCN4CCCC4)ccc3o2)cc1` [ND-94] were, in that order, more than 25 µM, 32.1 µM and approximately 23.6 µM.
